Assay results reported in ChEMBL document CHEMBL1201862, “PubChem BioAssay data set” (2004).
Calls of active or inactive are those of the source.

Tests used:
[1] = target: T1, Corticotropin-releasing factor receptor 2/Corticotropin-releasing factor-binding protein (Homo sapiens, UniProt P24387+Q13324); test: activators of CRF receptor 2 with binding protein – uHTS hits, confirmation (AID 602473); type: functional; settings: read-out: EC50_Mean
T1 sequence (Q13324 whole entry): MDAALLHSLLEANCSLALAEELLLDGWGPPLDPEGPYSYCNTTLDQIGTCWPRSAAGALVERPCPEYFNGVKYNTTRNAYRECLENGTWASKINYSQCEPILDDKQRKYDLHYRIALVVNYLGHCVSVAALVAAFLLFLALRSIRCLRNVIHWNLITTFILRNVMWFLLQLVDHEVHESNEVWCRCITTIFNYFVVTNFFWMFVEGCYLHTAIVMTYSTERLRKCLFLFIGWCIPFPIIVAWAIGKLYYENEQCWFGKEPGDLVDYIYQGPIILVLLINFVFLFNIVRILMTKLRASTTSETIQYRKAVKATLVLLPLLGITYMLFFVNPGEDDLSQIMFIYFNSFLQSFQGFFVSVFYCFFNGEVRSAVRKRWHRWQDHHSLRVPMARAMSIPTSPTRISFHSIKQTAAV
T1 sequence (P24387 whole entry): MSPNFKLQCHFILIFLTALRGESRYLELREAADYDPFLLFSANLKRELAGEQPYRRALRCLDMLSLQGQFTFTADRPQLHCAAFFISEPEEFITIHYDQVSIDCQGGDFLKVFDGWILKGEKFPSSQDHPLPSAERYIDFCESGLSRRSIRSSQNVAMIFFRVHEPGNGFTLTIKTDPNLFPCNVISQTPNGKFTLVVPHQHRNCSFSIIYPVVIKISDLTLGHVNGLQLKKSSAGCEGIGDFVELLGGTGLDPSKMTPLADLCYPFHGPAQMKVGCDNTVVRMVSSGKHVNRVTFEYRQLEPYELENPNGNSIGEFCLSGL

[2] = target: T2, Short transient receptor potential channel 4 (Mus musculus, UniProt Q9QUQ5); test: calcium entry via TRPC4 opening agents – cell-based, HEK293 TRPC4/mu-opioid, Fluo-4 calcium, dose response (AID 434937); type: functional
T2 sequence (Q9QUQ5 whole entry): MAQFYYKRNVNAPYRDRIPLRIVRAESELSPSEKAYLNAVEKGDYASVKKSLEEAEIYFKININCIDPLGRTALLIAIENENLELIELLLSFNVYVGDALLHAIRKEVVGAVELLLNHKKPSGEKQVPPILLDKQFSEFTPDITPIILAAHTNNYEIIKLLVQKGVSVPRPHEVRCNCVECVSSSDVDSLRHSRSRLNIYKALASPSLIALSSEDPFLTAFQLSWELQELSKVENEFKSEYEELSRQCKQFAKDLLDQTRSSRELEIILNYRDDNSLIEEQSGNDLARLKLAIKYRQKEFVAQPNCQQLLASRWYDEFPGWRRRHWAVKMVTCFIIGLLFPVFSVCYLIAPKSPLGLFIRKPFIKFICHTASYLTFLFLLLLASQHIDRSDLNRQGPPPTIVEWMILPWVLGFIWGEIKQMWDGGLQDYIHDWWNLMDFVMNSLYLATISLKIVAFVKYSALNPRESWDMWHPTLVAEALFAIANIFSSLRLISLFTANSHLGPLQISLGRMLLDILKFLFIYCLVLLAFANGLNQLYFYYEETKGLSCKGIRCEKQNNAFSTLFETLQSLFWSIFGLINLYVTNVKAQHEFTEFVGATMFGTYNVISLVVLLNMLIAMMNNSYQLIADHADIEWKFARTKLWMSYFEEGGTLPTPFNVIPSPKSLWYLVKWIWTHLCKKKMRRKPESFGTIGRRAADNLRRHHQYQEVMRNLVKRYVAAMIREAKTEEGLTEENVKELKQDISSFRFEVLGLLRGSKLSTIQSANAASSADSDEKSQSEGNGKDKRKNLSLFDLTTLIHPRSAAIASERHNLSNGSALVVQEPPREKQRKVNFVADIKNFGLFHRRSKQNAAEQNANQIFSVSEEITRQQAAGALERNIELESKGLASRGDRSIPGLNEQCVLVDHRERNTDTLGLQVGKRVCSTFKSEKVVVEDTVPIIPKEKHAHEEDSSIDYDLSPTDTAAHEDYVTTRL

[3] = target: T3, Polyadenylate-binding protein 1 (Homo sapiens, UniProt P11940); test: MLLE domain peptide-binding blockers, IC50 – biochemical, fluorescence polarization, FITC-PAM2 peptide, dose response (AID 602259); type: functional; settings: read-out: IC50_Mean
[4] = target: T3, Polyadenylate-binding protein 1; test: MLLE binding blockers, Cy5 peptide tracer – biochemical, fluorescence polarization, Cy5-PAM2 peptide, secondary, miRNA deadenylation inhibitor project, dose response (AID 602260); type: functional; settings: read-out: IC50_Mean
[5] = target: Cytochrome P450 2C9 (Homo sapiens, UniProt P11712)
[6] = target: Cytochrome P450 3A4 (Homo sapiens, UniProt P08684);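 further: CYP3A4 tested as one member of a cytochrome P450 panel screen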
[7] = target: Cytochrome P450 2C19 (Homo sapiens, UniProt P33261); test: Cytochrome panel assay with activity outcomes. Panel member name: p450-cyp2c19 Compounds with AC50 equal or less than 10 uM are considered active; type: functional; settings: read-out: AC50
[8] = system: Streptococcus sp. 'group A'; test: Streptococcus pyogenes SK(-)GAS viability under kanamycin – luminescence, BacTiterGlo, confirmation, counter-screen for streptokinase expression inhibitor project, dose response (AID 1900); type: functional, organism-based
[9] = Luminescence Cell-Based Dose Response HTS to Identify Activators of Luciferase Translation or Activity in H4 […] Cells. [Related pubchem assays: 1829 (Project Summary), 1814 (Primary HTS)]; type: functional
[10] = system: Streptococcus; test: GAS UMAA2166 growth inhibition – luminescence, BacTiterGlo, counter-screen for streptokinase expression inhibitor project, dose response (AID 1915); type: functional, organism-based;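 further: potency for reduction of bacterial viability or growth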
[11] = target: T4, Streptokinase A (Streptococcus pyogenes serotype M1, UniProt P10520); test: viability-normalized secreted streptokinase activity reduction – plasminogen activation absorbance, OD405, dose response (AID 1914); type: functional, Streptococcus pyogenes M1 GAS;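 further: secreted streptokinase activity via plasminogen activation per viability signal from cell pellet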
T4 sequence (P10520 whole entry): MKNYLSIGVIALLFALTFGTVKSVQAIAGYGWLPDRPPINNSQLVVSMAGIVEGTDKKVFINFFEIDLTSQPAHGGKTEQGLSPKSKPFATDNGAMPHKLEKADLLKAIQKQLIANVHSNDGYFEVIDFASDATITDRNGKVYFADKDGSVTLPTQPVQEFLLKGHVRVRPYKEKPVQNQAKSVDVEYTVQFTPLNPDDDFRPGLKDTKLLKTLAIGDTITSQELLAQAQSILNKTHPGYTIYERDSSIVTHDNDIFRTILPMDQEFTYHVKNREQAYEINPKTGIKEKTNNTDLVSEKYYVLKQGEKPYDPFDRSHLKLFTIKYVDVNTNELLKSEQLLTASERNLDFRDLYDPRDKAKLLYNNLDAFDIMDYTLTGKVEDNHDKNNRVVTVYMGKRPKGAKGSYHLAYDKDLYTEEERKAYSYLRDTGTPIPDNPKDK

[12] = system: H4; test: Luminescence Cell-Based Dose Response HTS to Identify Activators of 5'UTR Stem-Loop Driven Prion Protein mRNA Translation in H4 Neuroglioblastoma Cells. [Related pubchem assays: 1829 (Project Summary), 1814 (Primary HTS)]; type: functional; settings: Homo sapiens
[13] = target: T5, Leucine aminopeptidase (Plasmodium falciparum 3D7, UniProt Q8IL11); test: P. falciparum M17LAP inhibitors, primary screen, biochemical, fluorogenic H-Leu-NHMec substrate, 1536-well (AID 1619); type: functional
T5 sequence (Q8IL11 whole entry): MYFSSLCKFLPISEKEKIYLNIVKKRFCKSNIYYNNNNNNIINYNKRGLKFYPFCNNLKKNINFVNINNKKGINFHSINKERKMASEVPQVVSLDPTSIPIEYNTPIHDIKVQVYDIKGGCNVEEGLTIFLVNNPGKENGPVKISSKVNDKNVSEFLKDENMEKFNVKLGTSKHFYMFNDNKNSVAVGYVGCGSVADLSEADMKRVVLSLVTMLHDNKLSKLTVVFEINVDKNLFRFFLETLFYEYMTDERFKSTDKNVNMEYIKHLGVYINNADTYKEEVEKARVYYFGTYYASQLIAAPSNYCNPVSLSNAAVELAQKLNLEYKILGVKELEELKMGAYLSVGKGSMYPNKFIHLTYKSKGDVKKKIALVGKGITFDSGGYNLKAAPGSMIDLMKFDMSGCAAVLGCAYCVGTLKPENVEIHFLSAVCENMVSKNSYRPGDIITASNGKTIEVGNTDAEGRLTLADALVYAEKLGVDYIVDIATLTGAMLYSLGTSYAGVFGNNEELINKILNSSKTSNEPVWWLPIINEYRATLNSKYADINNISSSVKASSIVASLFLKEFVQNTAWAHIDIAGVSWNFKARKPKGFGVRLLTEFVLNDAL

[14] = target: T6, Microphthalmia-associated transcription factor (Homo sapiens, UniProt O75030); test: reducers of TRPM1 reporter luminescence, concentration series – cell-based, SK-MEL-5, cherry-picked, set 3, MITF inhibitor project, dose response (AID 493073); type: functional;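 further: SK-MEL-5 melanoma cells with luciferase driven by the MITF target TRPM1 promoter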
T6 sequence (O75030 whole entry): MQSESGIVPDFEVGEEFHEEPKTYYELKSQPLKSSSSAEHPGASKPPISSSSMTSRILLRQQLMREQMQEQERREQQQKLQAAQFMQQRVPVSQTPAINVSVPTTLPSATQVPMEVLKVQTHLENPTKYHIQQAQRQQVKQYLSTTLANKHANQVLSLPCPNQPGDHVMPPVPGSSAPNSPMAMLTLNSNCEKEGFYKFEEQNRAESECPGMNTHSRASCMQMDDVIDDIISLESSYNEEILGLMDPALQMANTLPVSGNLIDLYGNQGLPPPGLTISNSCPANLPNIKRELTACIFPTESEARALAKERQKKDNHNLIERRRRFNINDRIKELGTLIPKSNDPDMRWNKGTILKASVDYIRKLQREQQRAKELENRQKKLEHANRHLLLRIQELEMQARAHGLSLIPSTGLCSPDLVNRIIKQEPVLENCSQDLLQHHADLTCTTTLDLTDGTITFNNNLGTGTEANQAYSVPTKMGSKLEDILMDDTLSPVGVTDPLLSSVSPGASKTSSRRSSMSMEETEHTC

[15] = target: T7, High affinity choline transporter 1 (Homo sapiens, UniProt Q9GZV3); test: human choline transporter blockers, potency – cell-based, 5-point CRC, membrane potential dye, dose response (AID 504840); type: functional
T7 sequence (Q9GZV3 whole entry): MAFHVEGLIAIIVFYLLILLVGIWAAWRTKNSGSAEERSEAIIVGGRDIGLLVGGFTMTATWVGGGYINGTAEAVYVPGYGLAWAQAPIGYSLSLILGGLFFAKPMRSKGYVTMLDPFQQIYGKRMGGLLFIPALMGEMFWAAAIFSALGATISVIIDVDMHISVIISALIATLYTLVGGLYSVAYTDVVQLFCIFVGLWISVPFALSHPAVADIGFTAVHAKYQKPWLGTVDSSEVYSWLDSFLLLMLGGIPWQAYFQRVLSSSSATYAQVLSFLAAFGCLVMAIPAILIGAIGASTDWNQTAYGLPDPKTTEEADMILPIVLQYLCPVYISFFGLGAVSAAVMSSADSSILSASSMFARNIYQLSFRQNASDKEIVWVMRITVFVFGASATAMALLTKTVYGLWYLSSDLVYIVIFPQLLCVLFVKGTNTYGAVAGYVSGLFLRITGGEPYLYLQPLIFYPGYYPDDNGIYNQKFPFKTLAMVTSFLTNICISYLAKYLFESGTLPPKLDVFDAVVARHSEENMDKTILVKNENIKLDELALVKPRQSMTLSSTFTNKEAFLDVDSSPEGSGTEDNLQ

[16] = target: FAD-linked sulfhydryl oxidase ALR (Homo sapiens, UniProt P55789); test: ALR-catalysed DTT oxidation blockers – biochemical, H2O2 detection, luminescence, cherry-pick, dose response (AID 493248)
[17] = Trypanosoma cruzi growth suppression in host cells – NIH3T3 host cells, beta-gal luminescence, confirmation (AID 2044); type: functional, cell-based;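 further: intracellular parasites grown in NIH/3T3 mouse fibroblasts as host cells; luminescent beta-galactosidase reporter signal from transgenic T. cruzi replicating inside host cells; inhibitors lower the luminescence signal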
[18] = NIH3T3 cell viability loss – ATP luminescence, mouse fibroblasts, counter-screen, dose response (AID 2010); type: functional, cell-based;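 further: cells exposed to compound for about 90 hours before reading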
[19] = target: Cytochrome P450 2D6 (Homo sapiens, UniProt P10635);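 further: CYP2D6 member of a cytochrome P450 panel assay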
Sequence of Cytochrome P450 2D6 (P10635 whole entry): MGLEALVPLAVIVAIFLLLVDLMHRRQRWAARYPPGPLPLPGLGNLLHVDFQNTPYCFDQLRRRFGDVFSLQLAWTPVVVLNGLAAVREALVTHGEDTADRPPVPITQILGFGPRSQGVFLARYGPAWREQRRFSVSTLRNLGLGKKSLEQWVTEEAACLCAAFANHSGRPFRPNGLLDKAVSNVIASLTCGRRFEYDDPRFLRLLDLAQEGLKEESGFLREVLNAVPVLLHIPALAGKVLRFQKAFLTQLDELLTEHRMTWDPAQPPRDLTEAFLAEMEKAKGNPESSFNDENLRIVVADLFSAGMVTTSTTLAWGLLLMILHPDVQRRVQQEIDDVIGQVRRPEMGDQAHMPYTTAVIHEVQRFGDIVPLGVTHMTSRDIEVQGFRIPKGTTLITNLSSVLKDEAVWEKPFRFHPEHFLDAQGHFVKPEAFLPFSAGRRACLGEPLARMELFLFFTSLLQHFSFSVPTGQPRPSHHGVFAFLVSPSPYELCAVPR

Sequence of Cytochrome P450 2C9 (P11712 whole entry): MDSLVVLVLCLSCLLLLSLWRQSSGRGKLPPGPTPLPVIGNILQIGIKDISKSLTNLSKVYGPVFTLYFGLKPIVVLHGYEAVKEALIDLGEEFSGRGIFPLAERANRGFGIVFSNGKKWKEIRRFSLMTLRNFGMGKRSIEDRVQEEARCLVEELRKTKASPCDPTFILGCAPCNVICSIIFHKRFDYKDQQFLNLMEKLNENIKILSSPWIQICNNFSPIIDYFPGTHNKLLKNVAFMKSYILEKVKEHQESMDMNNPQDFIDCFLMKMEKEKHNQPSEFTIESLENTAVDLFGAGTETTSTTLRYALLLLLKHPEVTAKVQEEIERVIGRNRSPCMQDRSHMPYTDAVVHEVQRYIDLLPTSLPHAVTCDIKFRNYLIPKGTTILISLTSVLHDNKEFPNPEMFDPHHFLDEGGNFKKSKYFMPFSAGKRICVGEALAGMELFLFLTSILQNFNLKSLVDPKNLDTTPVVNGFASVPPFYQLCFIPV
T3 sequence (P11940 whole entry, the tested form may be a part): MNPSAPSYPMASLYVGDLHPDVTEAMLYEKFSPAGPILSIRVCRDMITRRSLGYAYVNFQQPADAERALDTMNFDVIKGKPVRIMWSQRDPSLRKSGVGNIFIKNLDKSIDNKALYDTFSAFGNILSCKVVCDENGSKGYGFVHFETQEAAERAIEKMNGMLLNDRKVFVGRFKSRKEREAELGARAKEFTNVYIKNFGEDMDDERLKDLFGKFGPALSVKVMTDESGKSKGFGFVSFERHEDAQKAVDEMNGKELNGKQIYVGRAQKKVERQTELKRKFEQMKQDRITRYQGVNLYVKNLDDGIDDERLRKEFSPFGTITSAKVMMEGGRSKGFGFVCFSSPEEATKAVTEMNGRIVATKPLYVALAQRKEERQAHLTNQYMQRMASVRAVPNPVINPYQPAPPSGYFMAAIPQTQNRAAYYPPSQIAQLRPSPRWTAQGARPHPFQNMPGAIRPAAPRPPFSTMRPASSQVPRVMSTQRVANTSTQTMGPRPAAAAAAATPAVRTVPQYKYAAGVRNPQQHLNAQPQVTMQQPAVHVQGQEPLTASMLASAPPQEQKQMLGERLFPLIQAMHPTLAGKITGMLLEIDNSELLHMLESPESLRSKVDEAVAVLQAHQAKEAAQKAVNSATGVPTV
Sequence of Cytochrome P450 2C19 (P33261 whole entry): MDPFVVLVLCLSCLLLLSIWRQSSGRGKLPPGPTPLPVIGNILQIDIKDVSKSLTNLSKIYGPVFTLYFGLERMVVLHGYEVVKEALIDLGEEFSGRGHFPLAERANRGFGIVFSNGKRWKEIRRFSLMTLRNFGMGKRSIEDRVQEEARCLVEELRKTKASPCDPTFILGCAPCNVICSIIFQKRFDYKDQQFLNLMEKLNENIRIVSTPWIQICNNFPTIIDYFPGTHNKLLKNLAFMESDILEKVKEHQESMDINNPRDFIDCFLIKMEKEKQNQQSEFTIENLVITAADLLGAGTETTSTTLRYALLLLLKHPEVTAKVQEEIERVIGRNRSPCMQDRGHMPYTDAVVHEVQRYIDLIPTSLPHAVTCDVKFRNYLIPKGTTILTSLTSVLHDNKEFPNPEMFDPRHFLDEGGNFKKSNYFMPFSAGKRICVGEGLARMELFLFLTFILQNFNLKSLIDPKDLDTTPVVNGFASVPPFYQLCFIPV
Sequence of Cytochrome P450 3A4 (P08684 whole entry): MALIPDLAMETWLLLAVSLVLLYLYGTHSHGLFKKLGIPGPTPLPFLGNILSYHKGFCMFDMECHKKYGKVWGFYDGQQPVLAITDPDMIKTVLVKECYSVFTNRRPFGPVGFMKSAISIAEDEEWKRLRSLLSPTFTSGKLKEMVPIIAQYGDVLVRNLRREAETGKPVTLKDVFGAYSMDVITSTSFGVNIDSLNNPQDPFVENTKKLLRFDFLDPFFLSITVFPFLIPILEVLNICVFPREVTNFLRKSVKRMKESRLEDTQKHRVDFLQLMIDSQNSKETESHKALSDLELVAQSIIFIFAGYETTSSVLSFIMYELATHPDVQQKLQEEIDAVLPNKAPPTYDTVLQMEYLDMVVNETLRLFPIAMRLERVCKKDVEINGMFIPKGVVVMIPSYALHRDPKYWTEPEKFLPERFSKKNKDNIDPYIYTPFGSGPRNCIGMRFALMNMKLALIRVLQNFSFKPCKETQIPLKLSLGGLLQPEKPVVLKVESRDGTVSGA
Sequence of FAD-linked sulfhydryl oxidase ALR (P55789 whole entry): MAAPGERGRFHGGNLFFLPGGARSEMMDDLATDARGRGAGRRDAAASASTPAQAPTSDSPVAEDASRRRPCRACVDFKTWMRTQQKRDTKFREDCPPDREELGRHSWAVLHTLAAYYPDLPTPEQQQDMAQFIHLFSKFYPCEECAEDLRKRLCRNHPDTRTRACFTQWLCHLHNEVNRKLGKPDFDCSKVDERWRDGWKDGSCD

SMILES: CC12CCCCN1CCCc1c2[nH]c2ccccc12 (centres undefined)
- EC50 [1]: 4.38 µM (active)
- EC50 [2]: 4.22 µM (active)
- IC50 [3]: > 66 µM (inactive)
- IC50 [4]: > 66 µM (inactive)

SMILES: CCOC(=O)C1(CCCc2ccccc2)CCN(Cc2cn(CC)nc2C)CC1
- EC50 [2]: 0.119 µM (active)

SMILES: COc1ccc(/C=C/CN2CCCC(C(=O)c3ccc(OC)c(F)c3)C2)cc1 (centres undefined)
- EC50 [2]: 10.6 µM (active)

SMILES: COc1ccc(NC(=O)c2cc(-c3ccccc3Cl)no2)cc1
- AC50 [5]: inconclusive
- AC50 [6]: 20 µM (inconclusive)
- AC50 [7]: 2.82 µM (inconclusive)

SMILES: CCOc1c(OC(C)=O)ccc(/C=C/c2ccc3cccc(OC(C)=O)c3n2)c1[N+](=O)[O-]
- EC50 [8]: 1.49 µM (active)
- EC50 [9]: 8.52 µM (active)
- AC50 [5]: inconclusive
- EC50 [10]: 8.24 µM (active)
- EC50 [11]: > 150 µM (not active)
- EC50 [12]: 8.07 µM (active)

SMILES: CCN1CCN(c2c(Cl)cccc2NC(=O)c2ccc([N+](=O)[O-])cc2)CC1
- EC50 [2]: 0.421 µM (active)

SMILES: CC(/C=C1\SC(=O)N(CCCC(=O)O)C1=O)=C\c1ccccc1
- IC50 [13]: 15.8 µM (active)
- AC50 [14]: 2.36 µM (active)
- IC50 [15]: 12.6 µM (active)
- AC50 [16]: 4.84 µM (active)

SMILES: Cc1cc(Br)cc(C)c1OCCCCN(C)C.O=C(O)C(=O)O
- EC50 [17]: 0.196 µM (active)
- EC50 [18]: > 30 µM (not active)
- AC50 [5]: inconclusive

SMILES: O=C(Nc1ccc(Cl)cc1)N1CCC(c2nc(-c3cccs3)no2)CC1
- EC50 [2]: 3.35 µM (active)

SMILES: O=C(COc1ccc2ccccc2c1Br)NNC(=O)Nc1ccccc1
- AC50 [5]: inconclusive

SMILES: Cc1ccc(/C=N/NC(=O)C2CCN(Cc3ccc(F)cc3Cl)CC2)o1
- AC50 [5]: inconclusive
- AC50 [19]: 35.5 µM (inconclusive)
- AC50 [6]: 5.01 µM (inconclusive)
- AC50 [7]: 31.6 µM (inconclusive)
